According to US10309956B2, “Process for assessing risk of substance administration” (priority 2014, dated 2019):
≈ marks a conversion by molar mass, not a printed value.

Key:
Assay type in all cases: cell-based, human
PBMCs [1] = assay: Intracellular cytokine-positive cells after 6 h LPS plus Golgiplug (modified protocol); conditions: total 6 h
Method: (§1) Previous methods utilized stimulation with TLR agonists (LPS is for […] and Poly I:C is for TLR3) for 67 h to measure intracellular cytokines and secreted cytokines.

NK cells [2] = assay: CD69 expression in NK cells of TPP-treated PBMCs (flow cytometry); conditions: 1650 μg/mL
Method: Cells were washed after 3 h treatment and re-plated in a 48-well plate at 1 million cells/well/mL with and without the presence of 10 μg/mL polyinosinic:polycytidylic acid (poly I:C) or lipopolysaccharide (LPS). After a 67 h incubation, supernatants were taken for secreted cytokine analysis. Cells were plated onto a 96-well plate at 1×10^6/mL and further incubated for 4 h with 200 μL of media with Golgiplug (1 μg/mL) (BD Biosciences, San Jose, Calif.) to measure intracellular cytokines. Cells were then harvested, washed and surface stained for CD56-PE and CD2-FITC, CD69-APC monoclonal antibodies (mAB) for 30 min at 4° C. After washing, cells were fixed and permeabilized with BD Biosciences Cytofix/Cytoperm buffer for 20 min on ice in the dark. […] Forward scatter, side scatter, fluorescence intensity and percent positivity were measured after acquiring 100,000 cells per sample by flow cytometry (BD Biosciences, San Jose, Calif.), and the data were analyzed using Cell Quest (BD Biosciences, San Jose, Calif.) and Flow Jo (Tree Star, Ashland, Oreg.) software.
CD69 is an early inducible cell surface glycoprotein expressed during lymphoid activation and is involved in NK cell function. PBMCs were treated with TPPs, and CD69 expression on NK cell population was analyzed by flow cytometry after poly I:C and LPS stimulation.

PBMCs [3] = assay: Secreted cytokines by CBA after 24 h LPS stimulation (modified protocol)
Method: as §1
To measure immunomodulatory effects, PBMCs were stimulated with LPS for different time periods and the secreted cytokines were measured by cytometric bead array (CBA) method. To establish LPS stimulation time, PBMCs were exposed to LPS stimulation for 4 h, 24 h, 48 h and 72 h and secreted cytokines were measured.

NK cells [4] = assay: TNF-α+ NK cells in poly I:C- and LPS-stimulated PBMCs treated with TPPs
PBMCs [5] = assay: IL-8 secretion by ELISA after LPS stimulation; conditions: 2 mg/mL
Method: Suppression of cytokines was also evident with nicotine. […] Next were measured IL-8 levels in the same samples as above using an ELISA assay.

PBMCs and NK cells = assay: Perforin levels in TPP-treated total PBMCs and NK cells; conditions: PBMC populations or NK cells
Method: Cells were washed after 3 h treatment and re-plated in a 48-well plate at 1 million cells/well/mL with and without the presence of 10 μg/mL polyinosinic:polycytidylic acid (poly I:C) or lipopolysaccharide (LPS). After a 67 h incubation, supernatants were taken for secreted cytokine analysis. Cells were plated onto a 96-well plate at 1×10^6/mL and further incubated for 4 h with 200 μL of media with Golgiplug (1 μg/mL) (BD Biosciences, San Jose, Calif.) to measure intracellular cytokines. Cells were then harvested, washed and surface stained for CD56-PE and CD2-FITC, CD69-APC monoclonal antibodies (mAB) for 30 min at 4° C. After washing, cells were fixed and permeabilized with BD Biosciences Cytofix/Cytoperm buffer for 20 min on ice in the dark. Cells were then stained with anti-IFN-γ-PE, anti-TNF-α-APC and anti-perforin-FITC mAB and incubated for an additional 30 min on ice. After washing the cells, they were re-suspended in a total volume of 200 μL of 2% paraformaldehyde for FACS analysis. Forward scatter, side scatter, fluorescence intensity and percent positivity were measured after acquiring 100,000 cells per sample by flow cytometry (BD Biosciences, San Jose, Calif.), and the data were analyzed using Cell Quest (BD Biosciences, San Jose, Calif.) and Flow Jo (Tree Star, Ashland, Oreg.) software.

PBMCs [6] = assay: Cell death / viability of PBMCs by 7AAD staining (flow cytometry)
Description: Cell death measured by 7-Aminoactinomycin D (7AAD) staining method is simple and more reliable as 7AAD intercalates into double-stranded nucleic acids and can penetrate cell membranes of dying or dead cells.

T cells = assay: Intracellular TNF-α and IFN-γ positive T cells in TPP-treated PBMCs stimulated with poly I:C or LPS (flow cytometry)
Method: Dosing was based on an equi-nicotine exposure paradigm. Cells were washed after 3 h treatment and re-plated in a 48-well plate at 1 million cells/well/mL with and without the presence of 10 μg/mL polyinosinic:polycytidylic acid (poly I:C) or lipopolysaccharide (LPS). After a 67 h incubation, supernatants were taken for secreted cytokine analysis. Cells were plated onto a 96-well plate at 1×10^6/mL and further incubated for 4 h with 200 μL of media with Golgiplug (1 μg/mL) (BD Biosciences, San Jose, Calif.) to measure intracellular cytokines. Cells were then harvested, washed and surface stained for CD56-PE and CD2-FITC, CD69-APC monoclonal antibodies (mAB) for 30 min at 4° C. After washing, cells were fixed and permeabilized with BD Biosciences Cytofix/Cytoperm buffer for 20 min on ice in the dark. Cells were then stained with anti-IFN-γ-PE, anti-TNF-α-APC and anti-perforin-FITC mAB and incubated for an additional 30 min on ice. After washing the cells, they were re-suspended in a total volume of 200 μL of 2% paraformaldehyde for FACS analysis. Forward scatter, side scatter, fluorescence intensity and percent positivity were measured after acquiring 100,000 cells per sample by flow cytometry (BD Biosciences, San Jose, Calif.), and the data were analyzed using Cell Quest (BD Biosciences, San Jose, Calif.) and Flow Jo (Tree Star, Ashland, Oreg.) software.
It was sought to evaluate intracellular cytokine levels in T cells after treating with combustible and non-combustible TPPs. In a first set of experiments, measured was the induction of intracellular TNF-α and IFN-γ by flow cytometry after PBMCs were treated with TPPs and stimulated with either poly I:C or LPS.
It was assessed whether the pretreatment of PBMCs with TPPs compromised their ability to produce TNF-α^+ cells when stimulated with poly I:C and LPS.
Evaluated also were changes in the number of IFN-γ^+ T cells with TPP treatment followed by poly I:C and LPS stimulation.

PBMCs [7] = assay: Cytolytic assay: killing of CFSE-labeled K562 target cells by TPP-treated PBMCs
Method: The K562 cell line was used as a target in a cytolytic assay. K562 cells were purchased from ATCC (Manassas Va., USA) and grown in RPMI complete media. One vial of cryopreserved PBMCs was thawed and washed, and a live cell count was taken. Different concentrations of TPPs were prepared in 100 μL media. 1.5×10^6 PBMCs in a 50 μL volume were added to each well and incubated for 1.5 h at 37° C. in 96-well round bottom plates. K562 target cells were labeled with carboxy fluorescein succinimidyl ester (CFSE) and added at a density of 100,000 cells/well (target:effector ratio is 1:15). Cell co-cultures were incubated at 37° C. for an additional 4 h. Immediately after the incubation period, cells were stained with 7AAD (which labels the dead cells) and the killing of CFSE-labeled K562 target cells was evaluated after 7AAD staining by flow cytometric analysis (BD Biosciences, San Jose, Calif.). Flow data were analyzed using Flow Jo software (Tree Star, Ashland, Oreg.).

## CN1CCCC1c1cccnc1 (centres unmarked) [nicotine]
PBMCs [1]
  IFN-γ-positive cells, TNF-α-positive cells and MIP-1α-positive cells: dose-dependent percent reduction
NK cells [2]
  basal levels of the induction of CD69 relative to untreated cells: did not increase
PBMCs [3]; LPS stimulation, 24 h
  secreted cytokines: dose-dependent decrease
PBMCs [3]; highest concentration (4 mg/mL) tested, LPS 24 h
  secreted IL-6: suppressed
PBMCs [3]; range of concentrations up to 500 μg/mL of nicotine, LPS 24 h
  secreted IFN-γ: significantly suppressed
NK cells [4]; higher dose (1650 μg/mL), after LPS stimulation
  changes in TNF-α+ NK cells: statistically significant reduction
NK cells [4]; lower doses (10 and 500 μg/mL)
  changes in TNF-α+ NK cells: did not induce statistically significant changes
PBMCs [5]
  IL-8 secretion, suppressive effects: significant
PBMCs and NK cells
  changes in perforin levels: did not result in statistically significant changes
PBMCs [6]; 3 h, 2000 μg/mL
  cell death: 8%
PBMCs [6]; 24 h, 3,000 μg/mL nicotine, comparable to near 80%
  cell death: comparable degree of cell death
PBMCs [6]; Homo sapiens, PBMC, 7AAD positive staining of PBMCs, 24 h assay, neat nicotine, read-out: EC50 (concentration at which 50% of the cells were no longer viable)
  EC50: 1650 µg/mL (≈ 10.2 mM)
T cells; 1650 μg/mL, basal (unstimulated)
  basal levels of TNF-α+ T cells: higher basal levels
T cells; 10-1650 μg/mL, poly I:C and LPS stimulation
  TNF-α+ T cell numbers: did not yield statistically significant differences
T cells; only at the highest concentrations, changes not statistically significant
  IFN-γ+ T cells (cytokine-positive cells): Measurable suppression
PBMCs [7]; K562 targets, target:effector 1:15
  target cell killing ability: did not reduce
PBMCs [7]; low and high doses
  cell killing (K562 targets): did not interfere
